Data as given in ChEMBL document CHEMBL1201862, “PubChem BioAssay data set” (2004).
Active and inactive are the calls of the source.

Columns and labels:
[1] = target: Adenosylmethionine-8-amino-7-oxononanoate aminotransferase (Mycobacterium tuberculosis, UniProt P9WQ81); assay: Mycobacterium tuberculosis BioA enzyme inhibitor Measured in Biochemical System Using Plate Reader - 2163-02_Inhibitor_Dose_CherryPick_Activity.; type: functional, Mycobacterium tuberculosis UT205
[2] = target: T1, High affinity choline transporter 1 (Homo sapiens, UniProt Q9GZV3); assay: human choline transporter blockers, potency – cell-based, 10-point CRC, membrane potential dye, dose response (AID 588401); type: functional;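 note: membrane potential dye fluorescence of choline-evoked depolarization via CHT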
T1 sequence (Q9GZV3 whole entry): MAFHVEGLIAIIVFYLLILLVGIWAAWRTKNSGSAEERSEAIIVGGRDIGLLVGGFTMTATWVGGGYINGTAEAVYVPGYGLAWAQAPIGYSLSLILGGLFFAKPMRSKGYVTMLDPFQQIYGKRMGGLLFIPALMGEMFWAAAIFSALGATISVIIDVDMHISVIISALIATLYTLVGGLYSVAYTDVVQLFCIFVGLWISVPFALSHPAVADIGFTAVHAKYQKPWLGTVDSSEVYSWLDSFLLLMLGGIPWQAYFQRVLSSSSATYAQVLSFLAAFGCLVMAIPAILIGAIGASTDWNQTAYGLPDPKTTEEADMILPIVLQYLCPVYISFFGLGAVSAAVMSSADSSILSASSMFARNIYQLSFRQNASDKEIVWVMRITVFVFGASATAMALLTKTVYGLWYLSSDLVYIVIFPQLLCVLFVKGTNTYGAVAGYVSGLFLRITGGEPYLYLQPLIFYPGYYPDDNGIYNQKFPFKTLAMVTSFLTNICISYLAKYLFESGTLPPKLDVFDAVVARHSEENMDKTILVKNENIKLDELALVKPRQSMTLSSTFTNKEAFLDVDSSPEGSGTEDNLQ

[3] = target: T1, High affinity choline transporter 1; assay: human choline transporter blockers, potency – cell-based, 5-point CRC, membrane potential dye, dose response (AID 504840); type: functional
[4] = (§1) Counterscreen for antagonists of the orexin 1 receptor (OX1R; HCRTR1): Fluorescence-based cell-based high throughput dose response assay to identify antagonists of the parental CHO cell line. [Related pubchem assays (depositor defined):AID434989, AID435008, AID463079, AID485270, AID492963, AID492964, AID492965, AID493232, AID504699, AID504701]; type: functional
[5] = target: T2, Orexin/Hypocretin receptor type 1 (Homo sapiens, UniProt O43613); assay: (§2) Fluorescence-based cell-based high throughput dose response assay for antagonists of the orexin 1 receptor (OX1R; HCRTR1). [Related pubchem assays (depositor defined):AID434989, AID435008, AID463079, AID485270, AID492963, AID492964, AID492965, AID493232, AID504717, AID504718]; type: functional
T2 sequence (O43613 whole entry): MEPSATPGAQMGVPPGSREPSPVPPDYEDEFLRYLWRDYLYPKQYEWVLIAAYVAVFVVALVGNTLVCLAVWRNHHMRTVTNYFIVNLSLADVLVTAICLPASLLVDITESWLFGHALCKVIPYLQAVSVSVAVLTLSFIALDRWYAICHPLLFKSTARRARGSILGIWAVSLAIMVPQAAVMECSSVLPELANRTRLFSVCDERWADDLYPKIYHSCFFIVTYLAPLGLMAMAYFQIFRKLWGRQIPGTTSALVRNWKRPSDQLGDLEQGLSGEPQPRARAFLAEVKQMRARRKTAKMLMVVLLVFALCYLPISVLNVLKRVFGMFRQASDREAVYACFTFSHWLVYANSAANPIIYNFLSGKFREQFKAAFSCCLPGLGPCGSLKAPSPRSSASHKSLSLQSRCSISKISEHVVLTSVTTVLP

[6] = target: T2, Orexin/Hypocretin receptor type 1; assay: as §2, with “Homogeneous Time Resolved Fluorescence (HTRF)-based” for “Fluorescence-based”; type: functional
[7] = target: T3, Orexin receptor type 2 (Homo sapiens, UniProt O43614); assay: Counterscreen assay for antagonists of the orexin 1 receptor (OX1R; HCRTR1): Homogeneous Time Resolved Fluorescence (HTRF)-based cell-based dose response assay for antagonists of the orexin 2 receptor (OX2R; HCRTR2), run by assay provider.; type: functional
T3 sequence (O43614 whole entry): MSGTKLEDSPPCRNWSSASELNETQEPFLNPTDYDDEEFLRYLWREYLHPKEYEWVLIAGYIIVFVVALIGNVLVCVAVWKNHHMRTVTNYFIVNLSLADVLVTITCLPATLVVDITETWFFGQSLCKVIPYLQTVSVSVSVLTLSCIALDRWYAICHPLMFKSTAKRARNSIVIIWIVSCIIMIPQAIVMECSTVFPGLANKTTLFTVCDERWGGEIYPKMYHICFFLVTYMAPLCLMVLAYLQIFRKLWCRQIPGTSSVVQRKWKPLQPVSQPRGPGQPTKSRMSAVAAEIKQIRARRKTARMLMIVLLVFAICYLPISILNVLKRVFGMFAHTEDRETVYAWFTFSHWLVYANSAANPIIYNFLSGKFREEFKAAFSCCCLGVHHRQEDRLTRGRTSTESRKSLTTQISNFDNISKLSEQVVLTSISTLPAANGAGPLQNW

[8] = tested on: CHO-K1; assay: as §1, with “Homogeneous time resolved fluorescence (HTRF)-based” for “Fluorescence-based”, “cell-based” for “cell-based high throughput”, “CHO-K1” for “CHO”; type: functional; details: Cricetulus griseus;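 note: potency for inhibition of ATP-stimulated IP1 production as antagonists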
[9] = target: T3, Orexin receptor type 2; assay: Counterscreen assay for antagonists of the orexin 1 receptor (OX1R; HCRTR1): Fluorescence-based cell-based dose response assay for antagonists of the orexin 2 receptor (OX2R; HCRTR2), run by assay provider.; type: functional
[10] = viability of uninfected HEp-2 cells – cell-based, HTS, cytotoxicity control for RSV inhibitor project, dose response (AID 2410); type: functional; details: human respiratory syncytial virus
[11] = tested on: H9c2; assay: cells; type: functional, cell-based; details: Rattus norvegicus, H9c2, Myocardium;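 note: confirmatory concentration-response retest of ultra-high-throughput screening hits for modulation of myocardial damage; cell death induced by hydrogen peroxide oxidative stress; compound pretreatment for 60 min then peroxide exposure for 2 h; potency is for protecting the cells against peroxide damage rather than for killing them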
[12] = target: Potassium voltage-gated channel subfamily KQT member 2 (Rattus norvegicus, UniProt O88943); assay: blockers of KCNQ2 channel current – cell-based, automated electrophysiology, set II, rat KCNQ2, dose response (AID 588637); type: functional
Sequence of Potassium voltage-gated channel subfamily KQT member 2 (O88943 whole entry): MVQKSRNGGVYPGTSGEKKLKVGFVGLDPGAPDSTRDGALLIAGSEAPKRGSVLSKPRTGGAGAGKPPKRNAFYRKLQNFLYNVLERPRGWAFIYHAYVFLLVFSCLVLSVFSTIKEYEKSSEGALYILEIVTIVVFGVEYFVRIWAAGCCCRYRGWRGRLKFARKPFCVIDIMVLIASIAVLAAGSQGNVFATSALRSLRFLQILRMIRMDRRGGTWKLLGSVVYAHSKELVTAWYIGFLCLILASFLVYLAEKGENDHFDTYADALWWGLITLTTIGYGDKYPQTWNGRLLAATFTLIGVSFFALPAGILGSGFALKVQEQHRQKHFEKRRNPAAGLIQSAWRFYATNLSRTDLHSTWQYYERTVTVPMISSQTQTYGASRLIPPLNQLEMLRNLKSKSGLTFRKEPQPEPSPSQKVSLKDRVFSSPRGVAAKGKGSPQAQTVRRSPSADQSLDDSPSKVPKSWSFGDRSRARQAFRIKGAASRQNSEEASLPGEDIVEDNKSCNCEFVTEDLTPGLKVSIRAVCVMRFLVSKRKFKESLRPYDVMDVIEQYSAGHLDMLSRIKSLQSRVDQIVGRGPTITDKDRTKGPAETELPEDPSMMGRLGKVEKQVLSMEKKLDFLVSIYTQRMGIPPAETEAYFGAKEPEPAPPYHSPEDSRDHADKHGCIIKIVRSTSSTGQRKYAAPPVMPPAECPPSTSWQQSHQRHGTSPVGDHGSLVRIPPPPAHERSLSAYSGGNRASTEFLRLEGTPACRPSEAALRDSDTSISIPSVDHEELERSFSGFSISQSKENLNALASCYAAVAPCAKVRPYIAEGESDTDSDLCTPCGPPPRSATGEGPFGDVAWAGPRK

[13] = non-specific 3'UTR reporter inhibition in Clone20-Shn3RL – cell-based, Renilla luciferase, cherry-picked, counter-screen for Shn3 inhibitor project, dose response (AID 624133); type: functional
[14] = target: Protein Wnt-3a (Mus musculus, UniProt P27467); assay: antagonism of Wnt3a pathway luciferase reporter – Wnt-LIGHT cells, luminescence, selectivity assay for Gli-SUFU antagonist project, dose response (AID 651570); type: functional; details: read-out: IC50_Mean;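 note: Wnt-LIGHT reporter cells stimulated with conditioned medium from Wnt3a-producing cells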
Sequence of Protein Wnt-3a (P27467 whole entry): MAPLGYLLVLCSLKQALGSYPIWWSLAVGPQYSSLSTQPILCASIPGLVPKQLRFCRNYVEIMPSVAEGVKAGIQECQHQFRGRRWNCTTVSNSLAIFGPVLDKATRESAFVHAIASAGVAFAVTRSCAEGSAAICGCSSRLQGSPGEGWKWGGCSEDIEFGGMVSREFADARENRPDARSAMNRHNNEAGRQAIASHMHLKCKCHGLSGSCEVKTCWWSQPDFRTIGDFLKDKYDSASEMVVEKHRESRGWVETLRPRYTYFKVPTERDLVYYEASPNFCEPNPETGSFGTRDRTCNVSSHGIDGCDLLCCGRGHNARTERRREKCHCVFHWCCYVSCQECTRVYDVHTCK

[15] = reduction of Shn3 3'UTR-driven luciferase in osteoblasts – cell-based, Clone20 osteoblasts, firefly luciferase, cherry-picked, dose response (AID 624132); type: functional;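 note: firefly luciferase luminescence from reporter carrying the Shn3 3'UTR in osteoblasts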
[16] = loss of viability in HepG2 cells – cell-based, CellTiter-Glo, cherry-picked, cytotoxicity control for Shn3 inhibitor project, dose response (AID 624134); type: functional
[17] = target: T4, Apoptotic protease-activating factor 1 (Homo sapiens, UniProt O14727); assay: SAR analysis of small molecule Activators of Apaf-1 in a Fluorescent assay.; type: functional; details: read-out: EC50_Mean;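 note: caspase-3 cleavage of fluorogenic Rh110 DEVD substrate downstream of apoptosome activation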
T4 sequence (O14727 whole entry): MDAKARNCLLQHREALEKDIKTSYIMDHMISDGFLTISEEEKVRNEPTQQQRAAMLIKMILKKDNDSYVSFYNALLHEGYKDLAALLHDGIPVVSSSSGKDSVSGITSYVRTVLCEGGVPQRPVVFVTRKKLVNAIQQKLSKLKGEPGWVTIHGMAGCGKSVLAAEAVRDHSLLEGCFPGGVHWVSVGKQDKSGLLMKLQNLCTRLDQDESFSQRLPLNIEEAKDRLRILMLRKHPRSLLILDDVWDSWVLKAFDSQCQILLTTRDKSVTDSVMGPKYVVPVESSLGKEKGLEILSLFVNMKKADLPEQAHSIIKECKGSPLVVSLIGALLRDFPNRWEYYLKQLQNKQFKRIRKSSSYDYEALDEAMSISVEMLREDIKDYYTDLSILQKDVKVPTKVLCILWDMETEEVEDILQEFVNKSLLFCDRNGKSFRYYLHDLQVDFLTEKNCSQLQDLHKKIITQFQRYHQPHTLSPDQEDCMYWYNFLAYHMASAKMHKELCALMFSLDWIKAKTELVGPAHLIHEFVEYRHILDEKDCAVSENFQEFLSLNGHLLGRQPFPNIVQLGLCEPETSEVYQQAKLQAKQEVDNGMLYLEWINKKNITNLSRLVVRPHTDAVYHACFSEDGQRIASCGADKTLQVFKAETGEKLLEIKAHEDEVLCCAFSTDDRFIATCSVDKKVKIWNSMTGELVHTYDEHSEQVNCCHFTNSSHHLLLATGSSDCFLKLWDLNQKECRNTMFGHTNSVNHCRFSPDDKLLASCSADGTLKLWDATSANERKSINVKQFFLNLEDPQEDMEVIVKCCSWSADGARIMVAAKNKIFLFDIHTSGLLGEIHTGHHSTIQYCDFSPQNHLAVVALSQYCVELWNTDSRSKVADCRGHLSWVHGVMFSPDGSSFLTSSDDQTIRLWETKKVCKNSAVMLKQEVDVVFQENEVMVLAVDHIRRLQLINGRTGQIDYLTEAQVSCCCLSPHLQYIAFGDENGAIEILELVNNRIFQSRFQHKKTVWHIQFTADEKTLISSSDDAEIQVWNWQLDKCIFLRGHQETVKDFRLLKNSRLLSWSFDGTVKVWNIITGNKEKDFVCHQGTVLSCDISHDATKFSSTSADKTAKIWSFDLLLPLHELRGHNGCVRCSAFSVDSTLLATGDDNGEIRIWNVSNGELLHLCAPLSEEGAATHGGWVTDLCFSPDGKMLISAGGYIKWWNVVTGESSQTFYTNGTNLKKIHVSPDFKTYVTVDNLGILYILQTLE

[18] = cells
[19] = tested on: Streptococcus; assay: GAS UMAA2166 growth inhibition – luminescence, BacTiterGlo, counter-screen for streptokinase expression inhibitor project, dose response (AID 1915); type: functional, organism-based;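 note: potency for reduction of bacterial viability or growth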
[20] = tested on: Streptococcus sp. 'group A'; assay: Streptococcus pyogenes SK(-)GAS viability under kanamycin – luminescence, BacTiterGlo, confirmation, counter-screen for streptokinase expression inhibitor project, dose response (AID 1900); type: functional, organism-based
[21] = target: T5, Streptokinase A (Streptococcus pyogenes serotype M1, UniProt P10520); assay: viability-normalized secreted streptokinase activity reduction – plasminogen activation absorbance, OD405, dose response (AID 1914); type: functional, Streptococcus pyogenes M1 GAS;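 note: secreted streptokinase activity via plasminogen activation per viability signal from cell pellet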
T5 sequence (P10520 whole entry): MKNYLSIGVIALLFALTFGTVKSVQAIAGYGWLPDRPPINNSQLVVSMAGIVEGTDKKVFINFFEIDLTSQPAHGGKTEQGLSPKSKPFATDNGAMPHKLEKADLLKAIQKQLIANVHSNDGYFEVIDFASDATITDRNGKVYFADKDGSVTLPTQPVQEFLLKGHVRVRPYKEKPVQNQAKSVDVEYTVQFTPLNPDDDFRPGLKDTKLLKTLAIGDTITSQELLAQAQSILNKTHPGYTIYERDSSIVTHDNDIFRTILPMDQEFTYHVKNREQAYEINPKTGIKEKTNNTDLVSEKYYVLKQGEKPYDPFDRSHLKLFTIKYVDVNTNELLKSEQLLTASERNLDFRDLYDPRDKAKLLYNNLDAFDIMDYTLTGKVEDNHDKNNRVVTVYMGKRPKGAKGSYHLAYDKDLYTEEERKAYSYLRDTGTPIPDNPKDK

[22] = target: FAD-linked sulfhydryl oxidase ALR (Homo sapiens, UniProt P55789); assay: ALR-catalysed DTT oxidation blockers – biochemical, H2O2 detection, luminescence, cherry-pick, dose response (AID 493248)
Sequence of FAD-linked sulfhydryl oxidase ALR (P55789 whole entry): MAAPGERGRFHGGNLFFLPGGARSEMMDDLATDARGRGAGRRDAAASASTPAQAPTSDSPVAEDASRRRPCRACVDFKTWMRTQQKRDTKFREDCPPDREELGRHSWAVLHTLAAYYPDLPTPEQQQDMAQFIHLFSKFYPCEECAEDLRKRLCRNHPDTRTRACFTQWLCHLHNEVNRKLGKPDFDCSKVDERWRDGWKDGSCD

Sequence of Adenosylmethionine-8-amino-7-oxononanoate aminotransferase (P9WQ81 whole entry): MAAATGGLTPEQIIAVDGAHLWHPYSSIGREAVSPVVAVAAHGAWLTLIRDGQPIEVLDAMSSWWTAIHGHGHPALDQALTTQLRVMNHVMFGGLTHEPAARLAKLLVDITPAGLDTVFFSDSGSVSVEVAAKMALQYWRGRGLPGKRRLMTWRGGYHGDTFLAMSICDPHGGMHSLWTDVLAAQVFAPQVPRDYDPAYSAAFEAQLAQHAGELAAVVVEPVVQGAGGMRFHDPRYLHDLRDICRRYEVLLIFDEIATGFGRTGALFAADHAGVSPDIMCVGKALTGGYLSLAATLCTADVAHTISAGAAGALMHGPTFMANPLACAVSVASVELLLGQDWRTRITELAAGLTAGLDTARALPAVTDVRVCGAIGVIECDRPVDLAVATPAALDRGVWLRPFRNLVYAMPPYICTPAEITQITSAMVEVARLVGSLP

## Cc1c2cnn(CC(=O)NCc3ccccn3)c(=O)c2c(C)n1Cc1ccc(Cl)cc1
[1]
  AC50: 2.49 µM (active)

## Cc1ccc(C(C)N=C(S)NC2CCCCC2)cc1C (stereo unspecified)
[2]
  IC50: 3.36 µM (active)
[3]
  IC50: 8 µM (active)

## Cc1nn(-c2ccccc2)c2nc(N)c(C#N)c(-c3ccc(O)c(O)c3)c12
[4]
  IC50: 36.2 µM (inactive)
[5]
  IC50: > 5.53 µM (active)
[6]
  IC50: 9.34 µM (active)
[7]
  IC50: > 50 µM (inactive)
[8]
  IC50: > 66.2 µM (inactive)
[9]
  IC50: > 88.8 µM (inactive)
[10]
  CC50: 17.4 µM (active)

## CCC(CC)C(=O)N(CCc1ccc(OC)cc1)Cc1nc(O)c2ccccc2n1
[11]
  IC50: > 79 µM (inactive)
[12]
  IC50: 12.4 µM (active)

## C[C@@H]1COC(=O)[C@@H](NC(=O)OCC2c3ccccc3-c3ccccc32)C/C=C\C[C@@H](CC(=O)N(CCO)Cc2ccccc2)C(=O)N1
[13]
  AC50: 3.59 µM (active)
[14]
  IC50: 3.34 µM (active)
[15]
  AC50: 1.89 µM (active)
[16]
  AC50: > 70 µM (inactive)

## CC(=O)c1ccc(N2C(=O)CC3(CC(c4ccc(Cl)cc4)=NO3)C2=O)cc1 (stereo unspecified)
[17]
  EC50: > 100 µM (inactive)

## O=C(NC(Cc1c[nH]c2ccccc12)C(=O)N/N=C/c1ccc(Cl)cc1)c1cccs1 (stereo unspecified)
[4]
  IC50: > 49.8 µM (inactive)
[5]
  IC50: 8.68 µM (active)
[18]
  IC50: 10.9 µM (active)
[6]
  IC50: 3.28 µM (active)
[7]
  IC50: > 50 µM (inactive)
[8]
  IC50: > 66.2 µM (inactive)
[9]
  IC50: 24 µM (inactive)
[10]
  CC50: 14.7 µM (active)

## N#C/C(=N\Nc1ccc(Cl)cc1)C(N)=S
[2]
  IC50: 2.04 µM (active)
[3]
  IC50: 5.01 µM (active)
[19]
  EC50: > 150 µM (not active)
[20]
  EC50: > 150 µM (not active)
[21]
  EC50: > 150 µM (not active)
[22]
  AC50: 7.86 µM (active)
